Source: patent US6635786B2, “Symmetrically disubstituted aromatic compounds and pharmaceutical compositions for inhibiting poly (ADP-ribose) glycohydrolase, and methods for their use” (Guilford Pharmaceuticals, Inc., priority 2001, dated 2003)

Experiments:
human PARG = molecular target: T1, human PARG (Homo sapiens, UniProt Q86W56); test: PARG enzymatic assay; type: biochemical; conditions: recombinant GST-fused human PARG (aa 378-976); 3H-labeled poly-(ADP-ribose) substrate; 23° C., 10 min
T1 construct: human PARG from amino acid 378 to 976; GST (glutathione-S-transferase, pGEX-4T1) (N); made in house; host or cells: E. coli BL21
T1 sequence (Q86W56 378-976): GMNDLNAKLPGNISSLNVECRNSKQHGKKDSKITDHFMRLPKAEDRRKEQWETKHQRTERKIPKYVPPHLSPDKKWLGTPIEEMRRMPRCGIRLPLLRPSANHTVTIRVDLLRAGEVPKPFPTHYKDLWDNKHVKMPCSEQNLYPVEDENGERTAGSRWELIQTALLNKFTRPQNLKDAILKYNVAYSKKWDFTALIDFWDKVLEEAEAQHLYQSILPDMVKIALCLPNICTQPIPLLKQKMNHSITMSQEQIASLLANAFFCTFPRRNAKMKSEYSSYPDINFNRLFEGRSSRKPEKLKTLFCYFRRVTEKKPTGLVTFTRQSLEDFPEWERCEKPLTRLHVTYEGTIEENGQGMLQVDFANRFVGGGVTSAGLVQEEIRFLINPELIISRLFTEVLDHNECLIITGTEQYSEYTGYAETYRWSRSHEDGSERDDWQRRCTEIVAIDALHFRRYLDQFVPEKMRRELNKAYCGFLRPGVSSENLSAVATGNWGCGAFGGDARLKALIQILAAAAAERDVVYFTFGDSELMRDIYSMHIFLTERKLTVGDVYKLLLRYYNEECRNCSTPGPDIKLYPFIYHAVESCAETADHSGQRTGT
Method: The potency of PARG inhibition was determined in a PARG enzymatic assay. For each compound, various doses were used to inhibit the PARG reaction. A dose responsible curve was generated to determine the IC50 value and the concentration (in μM) required to achieve 50% inhibition of the reaction.
The PARG assay consisted of (a) preparation of 3H-labeled radioactive PARG as substrate, (b) purification of recombinant PARG, (c) incubation of the compound with the PARG reaction, (d) separation of the product by absorption to glass fiber filter and quantifying the radioactivity of ADP-ribose by scintillation counting.
3H-labeled poly-(ADP-ribose) was made by mixing labeled and unlabeled PAR. Labeled PAR was synthesized in a reaction of 50 mM Tris-HCl (pH 8.0), 4 mM MgCl2, 0.8 μg/mL activated DNA, 3 μM NAD, NEN 3H-NAD (0.1 mCi/mL), 0.8 μl/mL and 1.4 μl/mL Trevigen PARP. The reaction was incubated at room temperature for 60 min, then dialyzed to remove unincorporated 3H NAD using a MWCO 7000 dialysis cassette in 50 mM Phosphate buffer (pH 7.1) at 5° C. over night. Buffer was changed and dialysis continued for 2 h in the morning. The resulting 3H PAR gave 80,000 DPM/10 μL by scintillation counting.
Unlabeled PAR was synthesized in a reaction that consisted of 50 mM Tris-HCl (pH 8.0), 4 mM MgCl2, 0.8 μg/mL activated DNA, 150 μM NAD, and 1.9 μl/mL Trevigen PARP. The reaction was incubated at room temperature for 60 min, and dialyzed to remove unincorporated NAD in a MWCO 7000 cassette using 50 mM Phosphate buffer (pH 7.1) over night at […]. Buffer was changed and dialysis continued for 2 h in the morning. The OD260 of synthesized PAR is […].
The final PAR mix is made by combining 3H-PAR and PAR synthesized @ 150 μM NAD so that the OD260=0.2-0.3 and the DPM/10 μL=10,000 DPM (SA=0.45 Ci/mmole). EDTA was added to 1 mM.
A cDNA fragment encoding the carboxy terminal part of human PARG from amino acid 378 to 976 was amplified by polymerase chain reaction with human thymus cDNA (Clontech, Palo Alto, Calif.) as a template and a pair of primers with the sequences of 5′-[…]-3′ and 5′-[…]-3′. The primers contained the restriction enzyme sites EcoRI and XhoI. The PCR amplified PARG DNA fragment was digested with EcoRI and XhoI, and then ligated to the same sites in pGEX-4T1 plasmid (acquired from Pharmacia/Upjohn Co., Kalamazoo, Mich.) to create pGEX-PARG by using standard molecular biology procedure. The pGEX-PARG was transformed into E. coli strain BL21 for expressing the recombinant protein that has a glutathione-S-transferase at the amino terminus and fused in frame with PARG at the carboxy terminus. The recombinant protein was expressed and purified using glutathione-sephadex 4B beads according to the standard methodology.
A range of potential PARG inhibitors at final concentrations of 200.0 to 0.1 μM were tested, each point done in triplicate. The compounds were dissolved in DMSO resulting in a final DMSO concentration of 5.0%. The reaction was carried out in a volume of 0.1 mL. PARG enzyme was added to a concentration of 0.05 μL/mL to microtiter plates containing approximately 10 μM 3H-labeled poly-(ADP-ribose) in 50 mM Phosphate buffer (pH 7.1), 5 mM B-mercaptoethanol. The reaction was incubated at 23° C. for 10 min. and was stopped with the addition of TCA to a final concentration of 10%.
Enzyme activity was measured by the disappearance of substrate, [poly-(ADP-ribose) polymer], which was quantified as the loss of glass fiber filter adsorbed radioactivity. The reaction was harvested onto Millipore GFC96 well filter plates using the Packard Cell Harvestor. The plates were washed three times with 70% ethanol, air dried, and the radioactivity was measured by scintillation counting.

SMILES | melting point [°C] | IC50 (human PARG) [µM]
O=C(OCc1ccccc1)c1ccc2c(c1)C(Cl)(Cl)c1cc(C(=O)OCc3ccccc3)ccc1-2 [Example 1, 9,9-Dichloro-9H-fluorene-2,7-dicarboxylic acid bis-benzyl ester] | 159 to 162 | 13.5
O=C(OCCCc1ccccc1)c1ccc2c(c1)C(Cl)(Cl)c1cc(C(=O)OCCCc3ccccc3)ccc1-2 [Example 2, 9,9-Dichloro-9H-fluorene-2,7-dicarboxylic acid bis-(3-phenyl-propyl) ester] | 91 to 92 | 11.3
O=C(NCCCc1ccccc1)c1ccc2c(c1)C(Cl)(Cl)c1cc(C(=O)NCCCc3ccccc3)ccc1-2 [Example 13, 2,7-Bis-[N-(3-phenyl-propyl)-carbamoyl]-9,9-dichloro-9H-fluorene] | 165 to 167 | 4.3
O=C(NCCCc1ccccc1)c1ccc2c(c1)C(=O)c1cc(C(=O)NCCCc3ccccc3)ccc1-2 [Example 16] | 162 to 165 | 1.7
O=C(NCCc1ccccc1)c1ccc(C(=O)c2ccc(C(=O)NCCc3ccccc3)cc2)cc1 [Example 18, 4,4′-Bis(N-phenethyl)carbamoyl-benzophenone] | 244 to 248 | 6
O=C(c1cccc(C(=O)N2CCN(c3ccccc3)CC2)c1)c1cccc(C(=O)N2CCN(c3ccccc3)CC2)c1 [Example 22] | 157 to 158 | 17.1
O=C(CCCl)c1ccc2c(c1)Cc1cc(C(=O)CCCl)ccc1O2 [Example 37, 2,7-Bis-(3-chloro-propionyl)-xanthene] | 179 to 181 | 17
O=C(CCN1CCN(c2ccccc2)CC1)c1ccc2c(c1)Cc1cc(C(=O)CCN3CCN(c4ccccc4)CC3)ccc1O2 [Example 39, 2,7-Bis-[3-(4-phenyl-piperazin-1-yl)propionyl]-xanthene] | 206 to 208 | 7.1
O=C(CCN1CCN(c2cccc(C(F)(F)F)c2)CC1)c1ccc2c(c1)Cc1cc(C(=O)CCN3CCN(c4cccc(C(F)(F)F)c4)CC3)ccc1O2 [Example 40, 2,7-Bis-{3-[4-(3-trifluoromethyl-phenyl)-piperazin-1-yl]-propionyl}-xanthene] | 155 to 157 | 10.6
O=C(CCN1CCN(c2cccc(C(F)(F)F)c2)CC1)c1ccc2oc3ccc(C(=O)CCN4CCN(c5cccc(C(F)(F)F)c5)CC4)cc3c(=O)c2c1 [Example 41, 2,7-Bis-{3-[4-(3-trifluoromethyl-phenyl)-piperazin-1-yl]-propionyl}-xanthen-9-one] | 166 to 167 | 17.5
O=C(CCN1CCN(c2ccccc2)CC1)c1ccc2oc3ccc(C(=O)CCN4CCN(c5ccccc5)CC4)cc3c(=O)c2c1 [Example 42, 2,7-Bis-[3-(4-phenyl-piperazin-1-yl)-propionyl]-xanthen-9-one] | 199 to 201 | 100
O=C(c1cccc2c1S(=O)(=O)c1c(cccc1C(=O)N1CCN(c3ccc(C(F)(F)F)cc3)CC1)O2)N1CCN(c2ccc(C(F)(F)F)cc2)CC1 [Example 44, 1,9-Bis-{N-[4-(4-trifluoromethyl-phenyl)-piperazine]carbamoyl}-10,10-dioxo-phenoxathiin] | – | 12
O=C(c1cccc2c1S(=O)(=O)c1c(cccc1C(=O)N1CCN(c3ccc(O)cc3)CC1)O2)N1CCN(c2ccc(O)cc2)CC1 [Example 45, 1,9-Bis{N-[4-(4-hydroxy-phenyl)-piperazine]carbamoyl}-10,10-dioxo-phenoxathiin] | – | 37.9
O=C(c1cccc2c1S(=O)(=O)c1c(cccc1C(=O)N1CCN(c3ccncc3)CC1)O2)N1CCN(c2ccncc2)CC1 [Example 46, 1,9-Bis{N-[4-(pyridin-4-yl)-piperazine]carbamoyl}-10,10-dioxo-phenoxathiin] | – | 28.4
O=C(NCCCc1ccccc1)c1cccc2c1S(=O)(=O)c1c(cccc1C(=O)NCCCc1ccccc1)O2 [Example 47, 1,9-Bis-[N-(3-phenpropyl)carbamoyl]-10,10-dioxo-phenoxathiin] | – | 100
O=C(NCCc1ccc(Cl)cc1Cl)c1cccc2c1S(=O)(=O)c1c(cccc1C(=O)NCCc1ccc(Cl)cc1Cl)O2 [Example 48, 1,9-Bis{N-[2-(2,4-dichlorophenyl)ethyl]carbamoyl}-10,10-dioxo-phenoxathiin] | – | 38.7
O=C(NCCN1CCCC1)c1cccc2c1S(=O)(=O)c1c(cccc1C(=O)NCCN1CCCC1)O2 [Example 49, 1,9-Bis{N-[2-(pyrrolidin-1-yl)ethyl]carbamoyl}-10,10-dioxo-phenoxathiin] | – | 9.9
O=C(NCCc1cccs1)c1cccc2c1S(=O)(=O)c1c(cccc1C(=O)NCCc1cccs1)O2 [Example 50, 1,9-Bis{N-[2-(thiophen-2-yl)ethyl]carbamoyl}-10,10-dioxo-phenoxathiin] | – | 11.5
O=C(NCCCN1CCOCC1)c1cccc2c1S(=O)(=O)c1c(cccc1C(=O)NCCCN1CCOCC1)O2 [Example 51, 1,9-Bis{N-[3-(morpholin-4-yl)-propyl]carbamoyl}-10,10-dioxo-phenoxathiin] | – | 9.6
COc1cc(CCNC(=O)c2cccc3c2S(=O)(=O)c2c(cccc2C(=O)NCCc2cc(OC)cc(OC)c2)O3)cc(OC)c1 [Example 52, 1,9-Bis {N-[2-(3,5-dimethoxyphenyl)ethyl]carbamoyl}-10,10-dioxo-phenoxathiin] | – | 31.6
CN(CCCC(=O)c1ccc2c(c1)-c1ccc(C(=O)CCCN(C)c3ccccc3)c3cccc-2c13)c1ccccc1 [Example 53, 3,9-Bis[4-(methylphenylamino)butyryl]fluoranthene] | – | 11.8
O=C(CCCn1cccc1)c1ccc2c(c1)-c1ccc(C(=O)CCCn3cccc3)c3cccc-2c13 [Example 54, 3,9-Bis[4-(1-pyrrolo)butyryl]fluoranthene] | – | 5.4
O=C(NCCc1ccccc1)c1ccc2c(c1)C(=O)c1cc(C(=O)NCCc3ccccc3)ccc1-2 [Example 56, 9-Oxo-9H-fluorene-2,7-bis-(phenethyl-amide)] | 327 to 329 | 22
O=C(NCc1ccc(Cl)c(Cl)c1)c1ccc2c(c1)C(=O)c1cc(C(=O)NCc3ccc(Cl)c(Cl)c3)ccc1-2 [Example 57, 9-Oxo-9H-fluorene-2,7-bis-(3,4-dichloro-benzylamide)] | 265 to 267 | 15
O=C(NCc1ccc(O)c(O)c1)c1ccc2c(c1)C(=O)c1cc(C(=O)NCc3ccc(O)c(O)c3)ccc1-2 [Example 58, 9-Oxo-9H-fluorene-2,7-bis-(3,4-dihydroxy-benzylamide)] | 160 to 163 | 10
O=C(CCN1CCN(c2ccc(F)cc2)CC1)c1ccc2c(c1)Cc1cc(C(=O)CCN3CCN(c4ccc(F)cc4)CC3)ccc1O2 [Example 59] | 207 to 209 | 2.9
O=C(CCN1CCN(c2cccc(Cl)c2)CC1)c1ccc2c(c1)Cc1cc(C(=O)CCN3CCN(c4cccc(Cl)c4)CC3)ccc1O2 [Example 60] | 182 to 185 | 1.1
